Results: ChEMBL document CHEMBL3639344, “Fused heterocyclic compounds as orexin receptor modulators” (2014)

Experiments:
[1] = target: T1, Orexin receptor type 2 (Homo sapiens, UniProt O43614); assay: (§1) Radioligand Binding: HEK293 stably expressing human orexin-2 receptor (Genebank accession number NM 001526) were grown to confluency in DMEM/F12 (Gibco, Cat #11039), in DMEM, 10% FBS, 1× Pen/Strep, 1× NaPyruvate, 1×HEPES, 600 ug/ml G418 media on 150 cm2 tissue culture plates, washed with 5 mM EDTA in PBS (HyClone Dulbecco's Phosphate Buffered Saline 1× with Calcium and Magnesium, Cat #SH30264.01, hereafter referred to simply as PBS) and scraped into 50 ml tubes. After centrifugation (2K xG, 10 min at 4° C.), the supernatant was aspirated and the pellets frozen and stored at −80° C. Cells were resuspended in PBS in the presence of 1 tablet of protease inhibitor cocktail (Roche, Cat. #11836145001) per 50 mL.
T1 sequence (O43614 whole entry): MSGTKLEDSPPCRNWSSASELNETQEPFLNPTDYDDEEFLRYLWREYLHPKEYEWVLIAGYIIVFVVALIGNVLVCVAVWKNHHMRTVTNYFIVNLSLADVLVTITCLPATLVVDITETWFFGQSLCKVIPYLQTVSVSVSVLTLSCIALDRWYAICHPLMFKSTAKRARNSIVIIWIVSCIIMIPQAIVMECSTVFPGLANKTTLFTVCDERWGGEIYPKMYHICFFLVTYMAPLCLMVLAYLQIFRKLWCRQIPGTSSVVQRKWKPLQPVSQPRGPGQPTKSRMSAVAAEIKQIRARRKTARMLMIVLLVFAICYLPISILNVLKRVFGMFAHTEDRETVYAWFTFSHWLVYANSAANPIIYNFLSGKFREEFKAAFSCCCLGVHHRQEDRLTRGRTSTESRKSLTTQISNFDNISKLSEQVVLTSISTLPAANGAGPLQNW

[2] = target: T2, Orexin/Hypocretin receptor type 1 (Homo sapiens, UniProt O43613); assay: as §1, with “Chinese ovary cells (CHO)” for “HEK293”, “orexin 1” for “orexin-2”, “#11039),” for “#11039), in DMEM,”, “Pen/Strep,” for “Pen/Strep, 1× NaPyruvate, 1×HEPES,”, “μg/mL” for “ug/ml”, “Phoshpate” for “Phosphate”; format: cell-based
T2 sequence (O43613 whole entry): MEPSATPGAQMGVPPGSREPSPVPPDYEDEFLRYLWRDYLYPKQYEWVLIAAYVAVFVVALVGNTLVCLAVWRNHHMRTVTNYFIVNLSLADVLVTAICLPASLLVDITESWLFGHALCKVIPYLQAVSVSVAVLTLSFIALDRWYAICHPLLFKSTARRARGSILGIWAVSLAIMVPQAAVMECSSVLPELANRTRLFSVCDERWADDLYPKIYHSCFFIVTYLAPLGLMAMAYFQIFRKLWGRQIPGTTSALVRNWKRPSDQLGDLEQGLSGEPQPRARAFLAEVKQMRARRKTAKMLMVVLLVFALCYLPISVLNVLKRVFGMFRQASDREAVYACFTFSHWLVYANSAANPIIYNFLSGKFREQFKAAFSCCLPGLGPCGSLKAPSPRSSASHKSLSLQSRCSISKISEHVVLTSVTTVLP

Compound: Cc1cc(C)nc(N2C[C@@H]3CCN(C(=O)c4ccccc4-c4nc(C)no4)C[C@@H]32)n1
- Ki [1]: 59 nM
- Ki [2]: 1590 nM
